Source: patent US20040152126A1, “Methods of screening for cox-2 inhibitors” (priority 1999, published 2004)

Legend:
[1] = system: endogenous cox-2 gene (mRNA of cox-2); test: RT-PCR analysis of the expression of cox-2 mRNA in Jurkat cells; assay type: cell-based, human; details: PMA 10 ng/ml alone or with calcium ionophore A23187 1 μM, FIG. 3(A)
Method: In order to study the regulation of the expression of the endogenous cox-2 gene in the Jurkat cell line, the analysis of the expression of its mRNA was performed by experiments with RT-PCR. At the same time, in order to validate the prom2-1906-LUC construct and to check that the regulation of the cloned promoter is as expected, experiments were carried out of transitory transfection of the prom2-1906-LUC construct using the Jurkat cell line. In both experiments, the cells were treated with compounds that stimulate and inhibit the induction of the promoter of cox-2.
Treatment with activator compounds were carried out using the phorbol ester PMA (Phorbol 12-Myristate 13-Acetate) (10 ng/ml) (Sigma) and the combination of PMA and Calcium ionophore A23187 (1 μM) (Sigma), hereinafter PMA+Ion.
Treatment with drugs that inhibit the induction by PMA+Ion were carried out with cyclosporin A (CsA) (100 ng/ml) or the synthetic glucocorticoide Dexamethasone (Dex) (1 μM) (Sigma).
The results obtained from the analysis by RT-PCR of the expression of mRNA of cox-2 in Jurkat cells are presented in FIG. 3, where the following can be observed:
As a control in both cases, the result obtained for the non-inducible mRNAs of the cox-1 isoform and for the glycerol aldehyde phosphate dehydrogenase (GAPDH) are shown.

cox-2 promoter = test: Luciferase activity in stable Jurkat-1906LUC clones (Jurkat-C3-, F9-, C7-1906LUC)
Method: The transfection was carried out by means of the technique of electroporation in cuvettes of 0.4 cm (BioRad) with 15×10^6 cells in 0.5 ml of complete medium [RMPI medium supplemented with 10% of foetal serum, L-glutamine 2mM and a mixture of antibiotics] […] After this period, the cells were electroporated in a Gene Pulser II (BioRad) apparatus at 1.500 μFaradays of capacitance and a current of 280 V. Next, the cells were incubated over ice for 10 minutes before adding 10 ml of complete medium. The cells were cultured in this medium in 75 cm^2 culture flasks (Nunc) for 48 hours in a cell incubator at 37° C. with a humidity of 95% and 5% of Co2. At this time, the medium was changed for complete medium with no antibiotics to which hygromycin (Boehringer Mannheim) was added at a concentration of 200 μg/ml. The cells were cultured in this medium for 30 days with successive changes of medium. […] For this, 1×10^6 cells were lysed in 50 μl of lysis buffer (Promega) and with the extracts obtained, the luciferase activity was determined using the reagents contained in the kit of the “Luciferase Assay System” [Promega].
These clones were grown until obtaining at least 1×10^6 cells with which measurement of the luciferase activity could be performed as described earlier. […]

Row | SMILES | expression of the mRNA of cox-2 [1] | increase of the basal values of luciferase activity (cox-2 promoter; three stable clones, treatment of 6 hours, FIG. 7) [times] | inhibition of the stimulation obtained with PMA+Ion (luciferase activity) (cox-2 promoter; stable Jurkat clones, 1 hour pre-treatment with compound, then PMA+Ion for 5 hours, FIGS. 8-10)
1 | CCCCCCCCCCCCCC(=O)O[C@@H]1[C@@H](C)[C@@]2(O)[C@@H](C=C(CO)C[C@]3(O)C(=O)C(C)=C[C@@H]23)[C@@H]2C(C)(C)[C@]12OC(C)=O [PMA, Phorbol 12-Myristate 13-Acetate] | slight increase | 3 to 6 | –
2 | Oc1ccc(C=Cc2cc(O)cc(O)c2)cc1 [Resveratrol] | – | – | produces an inhibition of the stimulation obtained with PMA+Ion
